In ChEMBL document CHEMBL1201862, “PubChem BioAssay data set” (2004):
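In this assay, cells in 96-well plates receive the compound at five concentrations for 48 hours. Endpoints are linearly interpolated between the surrounding concentrations. GI50 = concentration required for 50% inhibition of growth.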 The source made the active and inactive calls. Rule as the data show it: active = GI50 up to about 1.1 µM and inactive = higher.

Columns and labels:
Experiment in all cases: NCI anticancer screen, dose series, 48 h
DU-145 = tested on: DU-145
SF-539 = tested on: SF-539
SK-MEL-28 = tested on: SK-MEL-28
SK-OV-3 = tested on: SK-OV-3
SNB-19 = tested on: SNB-19
MDA-MB-435 = tested on: MDA-MB-435
MDA-N = tested on: MDA-N
Hs-578T = tested on: Hs-578T
RPMI-8226 = tested on: RPMI-8226
M14 = tested on: M14
UACC-62 = tested on: UACC-62
MOLT-4 = tested on: MOLT-4
EKVX = tested on: EKVX
SF-295 = tested on: SF-295
HOP-92 = tested on: HOP-92
HCC 2998 = tested on: HCC 2998
HCT-116 = tested on: HCT-116
NCI-H522 = tested on: NCI-H522
HT-29 = tested on: HT-29
SR = tested on: SR

Measured: GI50

COC(=O)[C@H](Cc1ccccc1)NC(=O)N(CCC#N)CCN(C(=O)N[C@@H](Cc1ccccc1)C(=O)OC)c1ccccc1
inactive: DU-145 29.1 µM | SF-539 20.8 µM | SK-MEL-28 18.2 µM | SK-OV-3 46.8 µM | SNB-19 49.5 µM | MDA-MB-435 18.9 µM | MDA-N 17.5 µM | Hs-578T 32.7 µM | RPMI-8226 21 µM | M14 24.9 µM | UACC-62 3.34 µM | MOLT-4 16.6 µM | EKVX 29.5 µM | SF-295 33.8 µM | HOP-92 18.7 µM | HCC 2998 28.2 µM | HCT-116 28.1 µM

CCOC(=O)C1=C(C)N(c2ccc(Cl)cc2)C2(O)C=CC(O)=C3C(=O)c4ccccc4C(=O)C312 (stereo unspecified)
inactive: DU-145 8.09 µM | SF-539 4.16 µM | NCI-H522 2.21 µM | SK-OV-3 10.6 µM | SNB-19 12.9 µM | MDA-MB-435 2.59 µM | MDA-N 4.7 µM | Hs-578T 4.26 µM | RPMI-8226 1.8 µM | M14 2.63 µM | UACC-62 3.44 µM | MOLT-4 2.43 µM | EKVX 4.36 µM | SF-295 6.93 µM | HOP-92 1.73 µM | HCT-116 3.2 µM

CC(=O)Nc1ccc(C(=O)NN2C(=O)CSC2c2ccccc2)cc1 (stereo unspecified)
inactive: DU-145 > 100 µM | SF-539 > 100 µM | SK-MEL-28 > 100 µM | SK-OV-3 > 100 µM | SNB-19 > 100 µM | MDA-MB-435 > 100 µM | MDA-N > 100 µM | Hs-578T > 100 µM | RPMI-8226 > 100 µM | M14 > 100 µM | UACC-62 > 100 µM | MOLT-4 > 100 µM | EKVX > 100 µM | SF-295 > 100 µM | HOP-92 > 100 µM | HCC 2998 > 100 µM | HT-29 > 100 µM | HCT-116 > 100 µM

CC(CN(C)C)C(C#N)(c1ccccc1)c1ccccc1 (stereo unspecified)
inactive: DU-145 > 100 µM | SF-539 > 100 µM | NCI-H522 > 100 µM | SK-MEL-28 89.1 µM | SK-OV-3 > 100 µM | SNB-19 > 100 µM | MDA-MB-435 > 100 µM | MDA-N > 100 µM | Hs-578T > 100 µM | RPMI-8226 78.2 µM | M14 > 100 µM | UACC-62 > 100 µM | MOLT-4 > 100 µM | EKVX > 100 µM | SF-295 > 100 µM | HOP-92 43.4 µM | HCC 2998 43.8 µM | HT-29 63.7 µM | HCT-116 > 100 µM

Nc1nc2c(ncn2CC2CCC(CO)C2)c(=O)[nH]1 (stereo unspecified)
inactive: DU-145 > 100 µM | SF-539 > 100 µM | SK-MEL-28 > 100 µM | SK-OV-3 > 100 µM | SNB-19 > 100 µM | MDA-MB-435 > 100 µM | MDA-N > 100 µM | Hs-578T > 100 µM | RPMI-8226 > 100 µM | M14 > 100 µM | UACC-62 29.2 µM | EKVX > 100 µM | SF-295 > 100 µM | HOP-92 > 100 µM | HCC 2998 > 100 µM | HCT-116 > 100 µM

Cc1ccc(-n2nnc(C#N)c2O)cc1
inactive: DU-145 > 100 µM | NCI-H522 > 100 µM | SK-MEL-28 > 100 µM | SK-OV-3 > 100 µM | SNB-19 > 100 µM | MDA-MB-435 > 100 µM | MDA-N > 100 µM | Hs-578T > 100 µM | RPMI-8226 > 100 µM | M14 > 100 µM | UACC-62 > 100 µM | MOLT-4 > 100 µM | EKVX > 100 µM | SF-295 > 100 µM | HCC 2998 > 100 µM | HT-29 > 100 µM | HCT-116 > 100 µM

C=C(CCOC)CCC1CCCCC(=C)C1=O (stereo unspecified)
inactive: DU-145 > 100 µM | NCI-H522 > 100 µM | SR > 100 µM | SK-MEL-28 > 100 µM | SK-OV-3 > 100 µM | SNB-19 > 100 µM | MDA-MB-435 > 100 µM | MDA-N > 100 µM | Hs-578T > 100 µM | RPMI-8226 > 100 µM | M14 > 100 µM | UACC-62 > 100 µM | MOLT-4 > 100 µM | EKVX > 100 µM | SF-295 > 100 µM | HCC 2998 > 100 µM | HT-29 > 100 µM | HCT-116 > 100 µM

COc1cc(NS(C)(=O)=O)ccc1N1Cc2c[nH]c3ccc4nccc1c4c23
inactive: DU-145 42.5 µM | NCI-H522 15.5 µM | SK-MEL-28 36 µM | SNB-19 34.7 µM | MDA-MB-435 34.4 µM | MDA-N 28.7 µM | Hs-578T 31.1 µM | RPMI-8226 17.5 µM | M14 42.4 µM | UACC-62 67.8 µM | MOLT-4 22.3 µM | EKVX > 100 µM | SF-295 41.5 µM | HOP-92 26.1 µM | HT-29 30.8 µM | HCT-116 26.6 µM

O=NN1C(c2ccccc2)CC(=NO)CC1c1ccccc1 (stereo unspecified)
inactive: DU-145 > 100 µM | SF-539 > 100 µM | NCI-H522 > 100 µM | SK-MEL-28 > 100 µM | SK-OV-3 > 100 µM | SNB-19 > 100 µM | MDA-MB-435 > 100 µM | MDA-N > 100 µM | Hs-578T > 100 µM | RPMI-8226 68.1 µM | M14 > 100 µM | UACC-62 > 100 µM | MOLT-4 46.3 µM | EKVX > 100 µM | SF-295 > 100 µM | HOP-92 > 100 µM | HCC 2998 79.1 µM | HT-29 20.5 µM | HCT-116 71.1 µM

NC1c2c(Cl)sc(Cl)c2C(=O)C1O (stereo unspecified)
inactive: DU-145 > 100 µM | SF-539 76.2 µM | NCI-H522 18.2 µM | SK-OV-3 > 100 µM | SNB-19 41.3 µM | MDA-MB-435 42.2 µM | MDA-N 44.4 µM | Hs-578T 35.1 µM | M14 32.3 µM | UACC-62 17.7 µM | MOLT-4 23 µM | EKVX 21.6 µM | SF-295 32.6 µM | HOP-92 13.1 µM | HCC 2998 17 µM | HT-29 19.7 µM | HCT-116 29.2 µM

CCOC(=O)/C=C(/C=C\COC1CCCCO1)c1ccccc1 (stereo unspecified)
inactive: DU-145 40 µM | NCI-H522 21.7 µM | SR 18.8 µM | SK-MEL-28 30 µM | SK-OV-3 33.6 µM | SNB-19 36.5 µM | MDA-MB-435 25.2 µM | MDA-N 31.3 µM | Hs-578T 22.3 µM | RPMI-8226 27.5 µM | M14 38.6 µM | UACC-62 24.5 µM | MOLT-4 20.4 µM | EKVX 43.3 µM | SF-295 24.8 µM | HCC 2998 > 100 µM | HT-29 15.8 µM | HCT-116 16 µM
